# In patent US20180042249A1, “METHOD FOR REDUCTION IN MICROBIAL ACTIVITY IN POULTRY PROCESSING” (Zeco, Inc., priority 2014, published 2018):
# System: bacterial count on poultry carcasses (chicken samples)
# Assay: Antimicrobial efficacy of elevated concentration and temperature application of PAA to poultry carcasses (average bacterial count reduction)
# Assay type: cell-based
# Method: As summarized in Table 1 below, ten chicken samples were treated with an elevated peroxyacetic acid concentration at an elevated temperature for a specified period of time using either an equilibrium peroxyacetic acid intervention solution or a pH modified peroxyacetic acid intervention solution. […] The treated poultry carcasses were measured for the average bacterial count reduction as a result of the elevated peroxyacetic acid concentration and elevated temperature.
substance,measurement,setting,value
peroxyacetic acid [PAA],Average % Reduction (bacterial count),"PAA 500 ppm, 72 °F, 10 seconds exposure, pH 7.7 (pH modified PAA solution)",97.34%
same,Average % Reduction (bacterial count),"PAA 500 ppm, 72 °F, 10 seconds exposure, pH ~3 (equilibrium PAA solution)",70.57%
same,Average % Reduction (bacterial count),"PAA 500 ppm, 125 °F, 7 seconds exposure, pH 7.7 (pH modified PAA solution)",93.68%
same,Average % Reduction (bacterial count),"PAA 500 ppm, 125 °F, 7 seconds exposure, pH ~3 (equilibrium PAA solution)",77.26%
same,Average % Reduction (bacterial count),"PAA 600 ppm, 125 °F, 7 seconds exposure, pH 7.7 (pH modified PAA solution)",89.34%
same,Average % Reduction (bacterial count),"PAA 600 ppm, 125 °F, 7 seconds exposure, pH ~3 (equilibrium PAA solution)",61.94%
same,Average % Reduction (bacterial count),"PAA 700 ppm, 125 °F, 7 seconds exposure, pH 7.7 (pH modified PAA solution)",97.87%
same,Average % Reduction (bacterial count),"PAA 700 ppm, 125 °F, 7 seconds exposure, pH ~3 (equilibrium PAA solution)",92.27%
same,bacterial count reduction,"elevated PAA concentration and temperature, period of time of at least 7 seconds (summary of Table 1)",≥ 60%
